Source: ChEMBL document CHEMBL1152197, “Convergent synthesis and cruzain inhibitory activity of novel 2-(N'-benzylidenehydrazino)-4-trifluoromethyl-pyrimidines” (Bioorg Med Chem, 2008)

Assays:
[1] = target: Cruzipain (Trypanosoma cruzi) (UniProt P25779); assay: Inhibition of Trypanosoma cruzi C-terminal truncated cruzain expressed in DH5alpha Escherichia coli at 100 uM by well-microplate spectrophotometry
Cruzipain = Cruzipain (Trypanosoma cruzi, UniProt P25779); assay: Inhibition of Trypanosoma cruzi C-terminal truncated cruzain expressed in DH5alpha Escherichia coli by well-microplate spectrophotometry
Cruzipain, sequence (P25779 whole entry, the tested form may be a part): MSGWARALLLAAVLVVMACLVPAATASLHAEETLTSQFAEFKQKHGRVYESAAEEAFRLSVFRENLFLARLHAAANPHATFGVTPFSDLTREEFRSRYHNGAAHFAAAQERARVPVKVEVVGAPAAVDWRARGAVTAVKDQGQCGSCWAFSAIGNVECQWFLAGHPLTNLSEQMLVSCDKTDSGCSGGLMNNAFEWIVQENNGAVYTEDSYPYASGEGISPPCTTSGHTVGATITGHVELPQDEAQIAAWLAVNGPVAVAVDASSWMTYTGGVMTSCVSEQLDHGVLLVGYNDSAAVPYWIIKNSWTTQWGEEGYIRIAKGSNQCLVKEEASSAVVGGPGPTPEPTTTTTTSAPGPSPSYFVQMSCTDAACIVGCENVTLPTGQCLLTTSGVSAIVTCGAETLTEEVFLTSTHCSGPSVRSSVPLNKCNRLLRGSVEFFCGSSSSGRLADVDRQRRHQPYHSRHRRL

Cruzipain (Trypanosoma cruzi), sequence (P25779 123-467 limits assumed): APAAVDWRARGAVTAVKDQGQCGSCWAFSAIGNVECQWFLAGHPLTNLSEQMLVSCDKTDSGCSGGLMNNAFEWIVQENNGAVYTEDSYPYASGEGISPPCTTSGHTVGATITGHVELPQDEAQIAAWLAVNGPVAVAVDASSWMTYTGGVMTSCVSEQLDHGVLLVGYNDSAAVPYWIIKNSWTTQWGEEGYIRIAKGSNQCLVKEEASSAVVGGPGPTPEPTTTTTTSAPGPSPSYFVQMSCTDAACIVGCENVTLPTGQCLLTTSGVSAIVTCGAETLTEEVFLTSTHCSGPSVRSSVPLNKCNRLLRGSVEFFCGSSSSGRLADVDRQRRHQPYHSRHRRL

`O=[N+]([O-])c1ccc(/C=N/Nc2nccc(C(F)(F)F)n2)cc1` was tested, and the inhibition [1] was 50% and the IC50 (Cruzipain) was 100 µM.

`FC(F)(F)c1ccnc(N/N=C/c2ccccc2)n1` was tested, and the inhibition [1] was 30% and the IC50 (Cruzipain) was > 150 µM.

With `Cc1ccccc1/C=N/Nc1nccc(C(F)(F)F)n1` the inhibition [1] was 45% and the IC50 (Cruzipain) was > 100 µM.

For `Cc1ccc(/C=N/Nc2nccc(C(F)(F)F)n2)cc1`, the inhibition [1] was 40% and the IC50 (Cruzipain) was > 100 µM.

Compound `Cc1cc(C(F)(F)F)nc(N/N=C/c2ccc(Cl)cc2)n1` has an inhibition [1] of 60% and an IC50 (Cruzipain) of 100 µM.

For `COc1ccc(/C=N/Nc2nccc(C(F)(F)F)n2)cc1`, the inhibition [1] was 40% and the IC50 (Cruzipain) was > 100 µM.

With `FC(F)(F)c1ccnc(N/N=C/c2ccc(Cl)cc2)n1` the inhibition [1] was 80% and the IC50 (Cruzipain) was 85 µM.

In the case of `Cc1cc(C(F)(F)F)nc(N/N=C/c2ccccc2C)n1`, the inhibition [1] is reported as 45% and the IC50 (Cruzipain) is reported as > 100 µM.

`COc1ccccc1/C=N/Nc1nc(C)cc(C(F)(F)F)n1` was tested, and the inhibition [1] was 20% and the IC50 (Cruzipain) was > 150 µM.
